# Measured values: patent US20230255872A1, “ORAL CARE COMPOSITIONS AND METHODS” (DENTHERAPY LTD, priority 2020, published 2023)
# Read-outs that look alike come from different tables or passages of the source.
# Legend:
# [1] = Description: Introduction. The remineralisation potential of three formulations: deionised water, 500 ppm fluoride solution from MFP and fluoride free Toothboost MOL-15 formulation were tested in a standard microindentation erosive lesion rehardening model, as described above in example 3. The objective of this study was to ascertain if fluoride free Toothboost MOL-15 formulation has the potential to remineralise erosive lesions without the presence of fluoride.
# (§1) Method. Five times a day for five days human enamel specimens with citric acid erosive lesions were sprayed with 0.15 g of the test formulations and incubated in artificial saliva (containing 1500 units/L of phosphatase) at 37° C. between treatments. The microhardness of the enamel specimens was remeasured after five days and the degree of re-mineralization calculated using the boundary conditions of 100% mineralized for the hardness of the initial enamel before the formation of the lesions and 0% mineralization for the hardness of the enamel after the formation of the lesion.
# [2] = Vickers microindentation erosive lesion rehardening model, MOK vs MOL (Example 3); details: bovine enamel, treated twice a day for seven days, spray approx 0.1 ml, N=8
# Description: Introduction. […] The objective of the study was to ascertain if formulation development for ToothBoost retained remineralizing efficacy. Four treatment groups were placed in the study: 1. MOK (legacy formulation), 2. Phosphate free ToothBoost MOL (development formulation), 3. 500 ppm fluoride solution made from MFP, 4. Deionised water. N=8 enamel specimens per treatment group.
# Enamel blocks are prepared from sound disease free human molars or bovine incisors and mounted in 25 mm diameter resin discs. After curing the underside of the disc is flattened using p400 grit paper. […]
# The discs are then rinsed under deionised water and sonicated for five minutes. Initial microhardness of the sound enamel is measured by microindentation to determine that the enamel is sufficiently mineralized for the purpose of the study and to record the microhardness of the sound enamel. […]
# Method. […] The microhardness of the de-mineralized enamel is then measured and the enamel discs organised so that each group have a similar range of microhardness values.
# The citric acid eroded bovine enamel specimens were then treated twice a day for seven days. […] At the end of day seven, the enamel specimens were rinsed in deionised water, dried and the micro hardness of the enamel was measured by Vickers microindentation to determine the extent of the re-mineralization of the enamel lesions. […]
# [3] = remark: listed apart in the source
# Description: Introduction. The remineralisation potential of three formulations: deionised water, 1450 ppm fluoride solution from MFP and fluoride free BoostPaste MON-6 formulation were tested in a standard microindentation erosive lesion rehardening model as described above in example 3. The objective of this study was to ascertain if fluoride free Boostpaste MON-6 formulation has the potential to remineralise erosive lesions without the presence of fluoride.
# as §1, with “Method. Twice” for “Method. Five times”, “were brushed” for “were sprayed”, “with” for “with 0.15 g of”, “remeasured each day for” for “remeasured after”
# [4] = Further stain prevention cycling study (Example 8); set-up: species or system bovine
# Description: Introduction. A cycling staining procedure as described in example 6 was again used to measure the staining prevention when bovine enamel was subjected to a cycling staining procedure after being treated with one of four formulations: ToothBoost MOL-6, a 3% solution of OPN pH adjusted to 7.0, a 1.25% solution of sodium bicarbonate pH adjusted to 7.0 and deionised water. The aim of the study was to rank the formulations in terms of their stain prevention capability when bovine enamel was treated with a combination of tea stain and chlorhexidine.
# Method. The enamel cores were treated by spraying the assigned treatment onto the enamel face using a single actuation of the ToothBoost spray pack and incubating for two minutes.
# The enamel specimens were then cycled between a 1% chlorhexidine solution, a solution of strong tea and artificial saliva for approximately ten cycles per day. At the end of the day of cycling the enamel was rinsed and allowed to dry before the enamel colour measured. The cycling continued for a total of three days of cycling. From the L*a*b* measurements the ΔE76 (change in perceivable colour) was calculated. ΔE76=1 is the smallest perceivable colour change that can be observed.
# The cycling continued every day for three days.
# After each set of cycling the enamel was rinsed with deionised water and allowed to dry before colour measurements were made. Fresh solutions were made at the start of each set of cycles.
# Results. The change in colour of the enamel was calculated from the L*a*b* values where the ΔE76 (The difference between enamel colour before and after cycling) was determined from equation 1: […]
# [5] = after the second round of treatments
molecule,measurement,setting,value
"F [500 ppm fluoride solution, monofluorophosphate]","remineralisation of erosive enamel lesions, statistical analysis",[1]; after 5 days of treatment,significant remineralisation
same,calculated remineralisation,"[1]; human enamel, sprayed 0.15 g five times a day for five days, 100% = initial enamel hardness, 0% = after lesion",over 25%
same,"remineralisation of erosive lesions (Vickers microhardness), statistical comparison",[2],statistically (probability <0.05) better than deionised water
"F [1450 ppm fluoride solution, monofluorophosphate]","remineralisation of erosive lesions, statistical comparison",[3]; brushed twice a day for five days,statistically better than deionised water
same,calculated remineralisation,"[3]; human enamel, brushed twice a day, after five days of treatment, N=10",over 23%
O=C([O-])O.[Na+] [sodium bicarbonate],"protection from staining (ΔE76), statistical comparison",[4]; [5],statistically the same
OPN solution: 3% solution of OPN (osteopontin) pH adjusted to 7.0,"protection from staining (ΔE76), statistical comparison",[4]; after the first set of treatments,statistically more protection than sodium bicarbonate solution
same,"protection from staining (ΔE76), statistical comparison",[4]; [5],statistically the same
same,"protection from staining (ΔE76), statistical comparison",[4]; after the third round of treatments,statistically the same
same,"protection from staining (ΔE76), statistical comparison","[4]; after the third round of treatments, listed as OPN",statistically better than sodium bicarbonate
